Source: patent EP4782453A1 (Beyang Therapeutics Co., Ltd., priority 2023, dated 2025)
Read-outs that look alike come from different tables or passages of the source.

Assays:
Menin-MLL = target: T1, Menin-MLL (Homo sapiens, UniProt O00255); experiment: Inhibitory activity against Menin-MLL binding (fluorescence polarization); conditions: 150 nM His-Menin, 15 nM FITC-MLL, 25°C for 60 min
T1 construct: His-Menin (M1-L615 end); purchased BIORTUS BP9210
T1 sequence (O00255 1-615 isoform O00255-1): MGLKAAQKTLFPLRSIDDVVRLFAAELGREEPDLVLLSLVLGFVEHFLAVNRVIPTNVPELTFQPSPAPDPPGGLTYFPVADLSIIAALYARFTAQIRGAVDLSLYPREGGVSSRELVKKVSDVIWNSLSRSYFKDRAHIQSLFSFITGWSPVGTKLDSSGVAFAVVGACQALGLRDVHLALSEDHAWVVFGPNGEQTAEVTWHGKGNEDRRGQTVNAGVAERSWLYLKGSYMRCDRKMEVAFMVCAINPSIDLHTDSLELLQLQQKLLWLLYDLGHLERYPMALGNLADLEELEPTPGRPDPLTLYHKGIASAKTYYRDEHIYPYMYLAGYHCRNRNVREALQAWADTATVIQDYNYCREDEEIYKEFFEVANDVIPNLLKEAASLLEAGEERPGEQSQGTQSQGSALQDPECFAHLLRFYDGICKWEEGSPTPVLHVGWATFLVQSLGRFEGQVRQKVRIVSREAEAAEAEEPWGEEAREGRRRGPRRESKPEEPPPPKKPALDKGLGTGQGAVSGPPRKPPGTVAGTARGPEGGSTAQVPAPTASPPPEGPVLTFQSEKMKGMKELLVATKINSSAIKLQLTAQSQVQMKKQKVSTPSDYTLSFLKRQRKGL
In short: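 His-Menin (M1-L615, 150 nM) preincubated with compound 15 min at 25 °C in HEPES pH 7.5, 50 mM NaCl, 1 mM DTT, 0.01% BSA, then 15 nM FITC-MLL4-43 peptide added for 60 min at 25 °C. Fluorescence polarization read; IC50 from 4-parameter logistic fit, duplicates.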

[1] = tested on: MV-4-11 (carrying MLL-AF4); experiment: Inhibition of proliferation of human tumor cells (Alamar Blue, 7 days), MV-4-11; type: cell-based; conditions: Homo sapiens, MV4-11, 168 h, MV-4-11 cells (carrying MLL-AF4), method calls the value GI50
Source text: Experimental Example 2: Evaluation of Inhibitory Activity of Compounds Against Proliferation of Human Tumor Cells
• Human acute lymphoblastic leukemia cells MV-4-11, purchased from American Type Culture Collection, Catalog Number: CRL-9591; • Human acute myeloid leukemia cells MOLM-13, purchased from COBIOER BIOSCIENCES CO., LTD, Catalog Number: CBP60678; • Human acute myeloid leukemia cells KG-1a, purchased from American Type Culture Collection, Catalog Number: CCL-246.1; • Inverted Microscope, purchased from Olympus Tokyo; • Countess™ Automated Cell Counter, purchased from Invitrogen, Model: C10281; and • Multilabel Reader, purchased from Bio-Tek, Model: Synergy HT.
MV-4-11 cells were cultured in an IMDM medium containing 10% fetal bovine serum, KG-a cells were cultured in an IMDM medium containing 20% fetal bovine serum, or MOLM-13 cells were cultured in an RPMI-1640 medium containing 20% fetal bovine serum, each supplemented with 100 U·mL^-1 penicillin and 100 µg·mL^-1 streptomycin. These cells were cultured at 37°C with 5% CO2. The suspensions of individual cell lines were prepared in their respective media and seeded into 96-well plates at a density of 4,000 cells/well for MV-4-11 and MOLM-13 cells, or 3,000 cells/well for KG-1a cells. On the day of the experiment, a compound stock solution was diluted in a 3-fold or 4-fold gradient using DMSO. Each gradient-diluted stock solution was then further diluted 250-fold with a complete medium to prepare a series of working solutions at different concentrations. Subsequently, 100 µL of working solution (containing a 2-fold concentration series of the test compound) was added to each well, with duplicate wells set up for each concentration.
Seven days after compound addition (on Day 7), an Alamar Blue assay reagent (MCE, HY-111391 / CS-0040317) was added to measure the fluorescence intensity in each well. Wells containing the cells in the growth medium supplemented with 0.1% DMSO (Day 7) served as high-read control wells. The readouts from the wells containing the cells in the growth medium supplemented with 0.1% DMSO on the day of compound addition (Day 0) served as low-reading control well. GraphPad Prism software was used to calculate the concentration required to inhibit 50% of cell proliferation (GI50), which serves as a cell proliferation inhibition activity index.

[2] = tested on: MOLM-13 (carrying MLL-AF9); experiment: Inhibition of proliferation of human tumor cells (Alamar Blue, 7 days), MOLM-13; type: cell-based; conditions: Homo sapiens, MOLM-13 cells (carrying MLL-AF9), method calls the value GI50
In short: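 MV-4-11: IMDM + 10% FBS; KG-1a: IMDM + 20% FBS; MOLM-13: RPMI-1640 + 20% FBS. 3- or 4-fold serial dilutions, duplicates, 7 d at 37°C. Readout Alamar Blue; GI50 vs Day 0 and Day 7 DMSO controls.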

[3] = Menin-MLL IC50, fluorescence polarization
[4] = fluorescence polarization, read-out: Menin-MLL IC50

Row | IC50 [1] [nM] | IC50 (Menin-MLL; [4]) [nM] | IC50 ([2]; 168 h) [nM] | Structure (SMILES) | IC50 (Menin-MLL; [3]) [nM] | IC50 ([2]; MOLM-13, 168 h) [nM]
1 | 7.9 | 13.5 | 39 | COC1CCN(CCC[C@H](C(C)C)N2CC(c3cc(-c4ccc(F)cc4C(=O)N4CCOC[C@H]4C)c4cnn(C)c4c3)C2)CC1 [Example 181-2, 4-{4-fluoro-2-[(3R)-3-methylmorpholin-4-carbonyl]phenyl}-6-{1-[(3R)-6-(4-methoxypiperidin-1-yl)-2-methylhexan-3-yl]azacyclobutan-3-yl}-1-methyl-1H-indazole] | – | –
2 | 6.3 | 13 | 34 | CO[C@H]1CCN(CCC[C@H](C(C)C)N2CC(c3cc(-c4ccc(F)cc4C(=O)N4CCOC[C@H]4C)c4cnn(C)c4c3)C2)C1 [Example 184-2] | – | –
3 | 25 | 29.5 | 40 | Cc1ncc2c(-c3ccc(F)cc3C(=O)N3CCC[C@H]3C)cc(C3CN(C(C)C4CCOCC4)C3)cn12 (stereo partly drawn) [Example 190] | – | –
4 | 13 | 41 | 35 | COCCN(C)C1CC(C(C(C)C)N2CC(c3cc(-c4ccc(F)cc4C(=O)N4CCOC[C@H]4C)c4cnn(C)c4c3)C2)C1 (stereo partly drawn) [Example 195, 3-{1-[3-(4-{4-fluoro-2-[(3R)-3-methylmorpholin-4-carbonyl]phenyl}-1-methyl-1H-indazol-6-yl)azacyclobutan-1-yl]-2-methylpropyl}-N-(2-methoxyethyl)-N-methylcyclobutan-1-amine] | – | –
5 | 12 | 29.5 | 21 | Cc1nc(F)c2c(-c3ccc(F)cc3C(=O)N3[C@H](C)COC[C@H]3C)cc(C3CN([C@H](C)C4CCOCC4)C3)cn12 [Example 209-1, (3R,5R)-4-[5-fluoro-2-(1-fluoro-3-methyl-6-{1-[(1R)-1-(oxacyclohexan-4-yl)ethyl]azacyclobutan-3-yl}imidazo[1,5-a]pyridin-8-yl)benzoyl]-3,5-dimethylmorpholine] | – | –
6 | 2 | 4.5 | 5 | Cc1nc(F)c2c(-c3ccc(F)cc3C(=O)N3[C@H](C)COC[C@H]3C)cc(C3CN([C@@H](C)C4CCOCC4)C3)cn12 [Example 209-2, (3R,5R)-4-[5-fluoro-2-(1-fluoro-3-methyl-6-{1-[(1S)-1-(oxacyclohexan-4-yl)ethyl]azacyclobutan-3-yl}imidazo[1,5-a]pyridin-8-yl)benzoyl]-3,5-dimethylmorpholine] | – | –
7 | 7.1 | 3 | 41 | CC(=O)N1CCC(CN2CC(Cc3cc(-c4ccc(F)cc4C(=O)N(CC(F)F)C(C)C)c4cncc(C)n34)C2)CC1 [Example 210] | – | –
8 | 2.2 | 3 | 5.7 | Cc1nc(F)c2c(-c3ccc(F)cc3C(=O)N3[C@H](C)COC[C@H]3C)cc(C3CN(CC4CCN(CC5(O)CCOCC5)CC4)C3)cn12 [Example 211, 4-[(4-{[3-(8-{2-[(3R,5R)-3,5-dimethylmorpholin-4-carbonyl]-4-fluorophenyl}-1-fluoro-3-methylimidazo[1,5-a]pyridin-6-yl)azacyclobutan-1-yl]methyl}piperidin-1-yl)methyl]oxacyclohexan-4-ol] | – | –
9 | 16 | 12.5 | 31 | Cc1ncc2c(-c3ccc(F)cc3C(=O)N3[C@H](C)COC[C@H]3C)cc(C3CN(CC4CCOCC4)C3)cn12 [Example 212, (3R,5R)-4-[5-fluoro-2-(3-methyl-6-{1-[(oxacyclohexan-4-yl)methyl]azacyclobutan-3-yl}imidazo[1,5-a]pyridin-8-yl)benzoyl]-3,5-dimethylmorpholine] | – | –
10 | 7.5 | 5 | 12 | Cc1nc(F)c2c(-c3ccc(F)cc3C(=O)N3[C@H](C)COC[C@H]3C)cc(C3CN(CC4CCN(C(=O)C5(O)CC5)CC4)C3)cn12 [Example 214] | – | –
11 | 6.7 | 11 | 13 | Cc1nc(F)c2c(-c3ccc(F)cc3C(=O)N3[C@H](C)COC[C@H]3C)cc(C3CN(CC4CCN(C(=O)C5CC5)CC4)C3)cn12 [Example 215] | – | –
12 | 22 | 23 | 32 | Cc1nc(F)c2c(-c3ccc(F)cc3C(=O)N3[C@H](C)COC[C@H]3C)cc(C3CN(CC4CCN(C(=O)C5COC5)CC4)C3)cn12 [Example 216] | – | –

Row | Structure (SMILES) | IC50 [1] [nM] | IC50 (Menin-MLL; [4]) [nM] | IC50 ([2]; 168 h) [nM] | IC50 (Menin-MLL; [3]) [nM] | IC50 ([2]; MOLM-13, 168 h) [nM]
13 | CCS(=O)(=O)N[C@H]1CC[C@H](CN2CC[C@@H](c3cc(-c4ccc(F)cc4C(=O)N(CC(F)F)C(C)C)c4cnc(C)n4c3)C2)CC1 [Example 164, N-(2,2-difluoroethyl)-5-fluoro-2-{3-methyl-6-[(3S)-1-{[(1r,4r)-4-ethanesulfonamidocyclohexyl]methyl}pyrrolidin-3-yl]imidazo[1,5-a]pyridin-8-yl]-N-(isopropyl)benzamide] | 2.2 | – | – | 6 | 6.1
14 | CCS(=O)(=O)N[C@H]1CC[C@H](CN2CC(c3cc(-c4ccc(F)cc4C(=O)N4CCC[C@H]4C)c4c(F)nc(C)n4c3)C2)CC1 [Example 187, N-[(1r,4r)-4-{[3-(1-fluoro-8-{4-fluoro-2-[(2R)-2-methylpyrrolidin-1-carbonyl]phenyl}-3-methylimidazo[1,5-a]pyridin-6-yl)azacyclobutan-1-yl]methyl}cyclohexyl]ethan-1-sulfonamide] | 15 | – | – | 16.5 | 36
15 | CO[C@H]1CCN([C@H]2C[C@H](C(C(C)C)N3CC(c4cc(-c5ccc(F)cc5C(=O)N5CCOC[C@H]5C)c5cnn(C)c5c4)C3)C2)C1 (stereo partly drawn) [Example 196-1, 4-{4-fluoro-2-[(3R)-3-methylmorpholin-4-carbonyl]phenyl}-1-methyl-6-(1-{2-methyl-1-[(1r,3r)-3-[(3S)-3-methoxypyrrolidin-1-yl]cyclobutyl]propyl}azacyclobutan-3-yl)-1H-indazole] | 36 | – | – | 50 | 120
16 | CO[C@H]1CCN([C@H]2C[C@@H](C(C(C)C)N3CC(c4cc(-c5ccc(F)cc5C(=O)N5CCOC[C@H]5C)c5cnn(C)c5c4)C3)C2)C1 (stereo partly drawn) [Example 196-2, 4-{4-fluoro-2-[(3R)-3-methylmorpholin-4-carbonyl]phenyl}-1-methyl-6-(1-{2-methyl-1-[(1s,3s)-3-[(3S)-3-methoxypyrrolidin-1-yl]cyclobutyl]propyl}azacyclobutan-3-yl)-1H-indazole] | 9.6 | – | – | 17 | 28
17 | Cc1nc(F)c2c(-c3ccc(F)cc3C(=O)N3[C@H](C)COC[C@H]3C)cc(C3CN(C[C@H]4CC[C@H](n5cncn5)CC4)C3)cn12 [Example 213, (3R,5R)-4-{5-fluoro-2-[1-fluoro-3-methyl-6-(1-{[(1r,4r)-4-(1H-1,2,4-triazol-1-yl)cyclohexyl]methyl}azacyclobutan-3-yl)imidazo[1,5-a]pyridin-8yl]benzoyl}-3,5-dimethylmorpholine] | 13 | – | – | 11 | 29
